Patent US12479847B2 (DANA-FARBER CANCER INSTITUTE, INC., priority 2019, dated 2025)
Read-outs that look alike come from different tables or passages of the source.

Legend:
Test in all cases: KINOMEscan (ScanMAX) kinase profiling
Assay type in all cases: binding
panel of 468 kinases [1] = target: T1, panel of 468 kinases (Homo sapiens, UniProt O75716); conditions: STK16; 1 μM; read-out: % control
T1 construct: purchased KINOMEscan (ScanMAX) service

panel of 468 kinases [2] = target: T2, panel of 468 kinases (Homo sapiens, UniProt P00519, H396P); conditions: 1 μM, read-out: % control
T2 construct: purchased KINOMEscan (ScanMAX) service

panel of 468 kinases [3] = target: T3, panel of 468 kinases (Homo sapiens, UniProt P07332); conditions: FES; 1 μM; read-out: % control
T3 construct: purchased KINOMEscan (ScanMAX) service

panel of 468 kinases [4] = target: T4, panel of 468 kinases (Homo sapiens, UniProt P30291); conditions: WEE1; 1 μM; read-out: % control
T4 construct: purchased KINOMEscan (ScanMAX) service

panel of 468 kinases [5] = target: T5, panel of 468 kinases (Homo sapiens, UniProt P42336); conditions: PIK3CA; 1 μM; read-out: % control
T5 construct: purchased KINOMEscan (ScanMAX) service

panel of 468 kinases [6] = target: T6, panel of 468 kinases (Homo sapiens, UniProt P42681); conditions: TXK; 1 μM; read-out: % control
T6 construct: purchased KINOMEscan (ScanMAX) service
T6 sequence (P42681 1-527): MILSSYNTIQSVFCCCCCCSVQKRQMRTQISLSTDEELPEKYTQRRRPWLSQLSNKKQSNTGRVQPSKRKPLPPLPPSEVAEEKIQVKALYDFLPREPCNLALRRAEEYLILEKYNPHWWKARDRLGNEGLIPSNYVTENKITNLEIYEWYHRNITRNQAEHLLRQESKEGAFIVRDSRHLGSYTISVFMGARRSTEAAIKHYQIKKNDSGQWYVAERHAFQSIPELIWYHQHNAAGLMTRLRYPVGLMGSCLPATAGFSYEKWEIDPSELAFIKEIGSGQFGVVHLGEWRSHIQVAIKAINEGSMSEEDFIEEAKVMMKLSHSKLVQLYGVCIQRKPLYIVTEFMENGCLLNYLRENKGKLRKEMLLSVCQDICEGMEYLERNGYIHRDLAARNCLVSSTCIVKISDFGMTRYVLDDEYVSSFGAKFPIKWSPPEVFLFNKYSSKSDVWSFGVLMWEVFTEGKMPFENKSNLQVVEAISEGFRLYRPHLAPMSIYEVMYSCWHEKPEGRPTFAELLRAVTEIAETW

panel of 468 kinases [7] = target: T7, panel of 468 kinases (Homo sapiens, UniProt Q02750); conditions: MEK1; 1 μM; read-out: % control
T7 construct: purchased KINOMEscan (ScanMAX) service

panel of 468 kinases [8] = target: T8, panel of 468 kinases (Homo sapiens, UniProt Q9UBE8); conditions: NLK; 1 μM; read-out: % control
T8 construct: purchased KINOMEscan (ScanMAX) service
T8 sequence (Q9UBE8 1-527): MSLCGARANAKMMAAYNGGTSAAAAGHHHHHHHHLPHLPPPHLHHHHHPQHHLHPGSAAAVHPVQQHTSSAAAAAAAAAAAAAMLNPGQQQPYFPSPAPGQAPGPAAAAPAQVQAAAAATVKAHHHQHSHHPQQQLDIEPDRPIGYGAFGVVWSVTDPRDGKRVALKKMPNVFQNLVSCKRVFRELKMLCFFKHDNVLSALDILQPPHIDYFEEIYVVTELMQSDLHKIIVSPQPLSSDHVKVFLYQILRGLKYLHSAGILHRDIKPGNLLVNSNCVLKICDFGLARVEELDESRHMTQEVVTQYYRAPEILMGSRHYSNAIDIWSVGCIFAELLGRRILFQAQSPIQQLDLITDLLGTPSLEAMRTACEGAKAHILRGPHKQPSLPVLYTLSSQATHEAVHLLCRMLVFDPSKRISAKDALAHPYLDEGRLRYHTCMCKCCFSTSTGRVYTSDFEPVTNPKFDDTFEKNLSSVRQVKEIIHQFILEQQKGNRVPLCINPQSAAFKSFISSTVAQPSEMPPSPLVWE

panel of 468 kinases [9] = target: T9, panel of 468 kinases (Homo sapiens, UniProt Q9UQB9); conditions: AURKC; 1 μM; read-out: % control
T9 construct: purchased KINOMEscan (ScanMAX) service
T9 sequence (Q9UQB9 1-309): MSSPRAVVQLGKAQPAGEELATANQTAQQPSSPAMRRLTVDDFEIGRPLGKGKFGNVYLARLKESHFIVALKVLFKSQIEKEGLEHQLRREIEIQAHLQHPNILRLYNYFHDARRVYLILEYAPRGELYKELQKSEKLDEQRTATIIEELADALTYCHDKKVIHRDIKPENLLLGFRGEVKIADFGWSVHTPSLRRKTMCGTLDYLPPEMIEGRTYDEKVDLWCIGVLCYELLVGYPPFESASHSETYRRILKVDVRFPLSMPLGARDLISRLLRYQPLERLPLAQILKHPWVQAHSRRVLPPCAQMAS

T5 sequence (P42336 whole entry): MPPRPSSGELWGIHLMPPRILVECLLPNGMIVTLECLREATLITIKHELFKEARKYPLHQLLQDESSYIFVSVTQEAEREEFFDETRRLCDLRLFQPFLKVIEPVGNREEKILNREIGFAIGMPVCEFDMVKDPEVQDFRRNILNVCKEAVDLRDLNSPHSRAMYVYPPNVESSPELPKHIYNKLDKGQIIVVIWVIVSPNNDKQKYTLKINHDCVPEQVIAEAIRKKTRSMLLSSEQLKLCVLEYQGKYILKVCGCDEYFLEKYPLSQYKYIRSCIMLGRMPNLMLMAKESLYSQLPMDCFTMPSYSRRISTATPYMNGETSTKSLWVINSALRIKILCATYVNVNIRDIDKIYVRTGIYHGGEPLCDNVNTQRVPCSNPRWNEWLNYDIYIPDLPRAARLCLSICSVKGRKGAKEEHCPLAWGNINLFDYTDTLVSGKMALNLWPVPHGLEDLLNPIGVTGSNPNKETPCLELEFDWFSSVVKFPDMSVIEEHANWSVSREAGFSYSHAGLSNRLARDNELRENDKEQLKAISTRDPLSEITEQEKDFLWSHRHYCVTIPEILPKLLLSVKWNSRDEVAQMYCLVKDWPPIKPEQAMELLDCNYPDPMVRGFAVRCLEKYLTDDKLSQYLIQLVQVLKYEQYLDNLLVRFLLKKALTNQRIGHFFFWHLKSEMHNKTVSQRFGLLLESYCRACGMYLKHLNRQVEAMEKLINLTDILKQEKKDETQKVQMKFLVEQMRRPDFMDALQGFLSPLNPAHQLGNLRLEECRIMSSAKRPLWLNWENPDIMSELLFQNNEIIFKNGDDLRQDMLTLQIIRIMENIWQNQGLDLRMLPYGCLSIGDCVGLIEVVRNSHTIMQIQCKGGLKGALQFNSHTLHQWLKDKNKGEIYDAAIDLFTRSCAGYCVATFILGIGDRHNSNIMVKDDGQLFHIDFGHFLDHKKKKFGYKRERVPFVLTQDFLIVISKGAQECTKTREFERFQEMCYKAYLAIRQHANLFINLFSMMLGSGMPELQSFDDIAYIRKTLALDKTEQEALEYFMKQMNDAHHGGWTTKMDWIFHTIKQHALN
T1 sequence (O75716 whole entry): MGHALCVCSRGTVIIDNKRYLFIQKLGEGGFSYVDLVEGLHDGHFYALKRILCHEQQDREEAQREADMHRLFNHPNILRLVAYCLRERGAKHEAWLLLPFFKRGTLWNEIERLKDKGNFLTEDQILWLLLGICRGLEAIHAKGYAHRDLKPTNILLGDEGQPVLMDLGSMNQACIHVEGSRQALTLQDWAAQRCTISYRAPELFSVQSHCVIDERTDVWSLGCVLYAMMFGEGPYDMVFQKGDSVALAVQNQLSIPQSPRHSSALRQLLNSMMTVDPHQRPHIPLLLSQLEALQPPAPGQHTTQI
T7 sequence (Q02750 whole entry): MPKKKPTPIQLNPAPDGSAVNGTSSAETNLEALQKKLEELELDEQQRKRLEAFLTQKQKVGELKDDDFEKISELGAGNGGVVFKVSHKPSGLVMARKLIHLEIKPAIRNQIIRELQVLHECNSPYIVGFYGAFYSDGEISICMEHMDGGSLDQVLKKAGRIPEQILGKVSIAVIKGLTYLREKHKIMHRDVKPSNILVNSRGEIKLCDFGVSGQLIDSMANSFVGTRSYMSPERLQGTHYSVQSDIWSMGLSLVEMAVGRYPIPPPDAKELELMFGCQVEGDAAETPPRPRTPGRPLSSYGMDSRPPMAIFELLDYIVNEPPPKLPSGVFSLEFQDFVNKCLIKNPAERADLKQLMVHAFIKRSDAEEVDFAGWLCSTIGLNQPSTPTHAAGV
T4 sequence (P30291 whole entry): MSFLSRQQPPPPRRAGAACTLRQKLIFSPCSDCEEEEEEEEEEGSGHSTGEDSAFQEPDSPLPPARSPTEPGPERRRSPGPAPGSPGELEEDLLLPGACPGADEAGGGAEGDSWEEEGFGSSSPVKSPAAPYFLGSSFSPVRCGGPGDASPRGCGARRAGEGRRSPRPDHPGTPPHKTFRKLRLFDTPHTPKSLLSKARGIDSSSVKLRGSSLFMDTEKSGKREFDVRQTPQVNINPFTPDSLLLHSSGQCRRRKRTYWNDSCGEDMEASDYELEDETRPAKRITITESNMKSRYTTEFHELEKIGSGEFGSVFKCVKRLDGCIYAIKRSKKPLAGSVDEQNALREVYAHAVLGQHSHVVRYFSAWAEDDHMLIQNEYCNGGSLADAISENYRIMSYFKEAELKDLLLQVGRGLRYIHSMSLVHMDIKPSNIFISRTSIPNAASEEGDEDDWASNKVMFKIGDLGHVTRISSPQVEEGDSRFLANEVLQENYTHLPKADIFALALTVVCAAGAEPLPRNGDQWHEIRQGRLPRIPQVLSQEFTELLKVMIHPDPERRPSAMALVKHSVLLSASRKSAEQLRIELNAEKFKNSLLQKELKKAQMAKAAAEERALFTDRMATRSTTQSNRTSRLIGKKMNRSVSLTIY
T3 sequence (P07332 whole entry): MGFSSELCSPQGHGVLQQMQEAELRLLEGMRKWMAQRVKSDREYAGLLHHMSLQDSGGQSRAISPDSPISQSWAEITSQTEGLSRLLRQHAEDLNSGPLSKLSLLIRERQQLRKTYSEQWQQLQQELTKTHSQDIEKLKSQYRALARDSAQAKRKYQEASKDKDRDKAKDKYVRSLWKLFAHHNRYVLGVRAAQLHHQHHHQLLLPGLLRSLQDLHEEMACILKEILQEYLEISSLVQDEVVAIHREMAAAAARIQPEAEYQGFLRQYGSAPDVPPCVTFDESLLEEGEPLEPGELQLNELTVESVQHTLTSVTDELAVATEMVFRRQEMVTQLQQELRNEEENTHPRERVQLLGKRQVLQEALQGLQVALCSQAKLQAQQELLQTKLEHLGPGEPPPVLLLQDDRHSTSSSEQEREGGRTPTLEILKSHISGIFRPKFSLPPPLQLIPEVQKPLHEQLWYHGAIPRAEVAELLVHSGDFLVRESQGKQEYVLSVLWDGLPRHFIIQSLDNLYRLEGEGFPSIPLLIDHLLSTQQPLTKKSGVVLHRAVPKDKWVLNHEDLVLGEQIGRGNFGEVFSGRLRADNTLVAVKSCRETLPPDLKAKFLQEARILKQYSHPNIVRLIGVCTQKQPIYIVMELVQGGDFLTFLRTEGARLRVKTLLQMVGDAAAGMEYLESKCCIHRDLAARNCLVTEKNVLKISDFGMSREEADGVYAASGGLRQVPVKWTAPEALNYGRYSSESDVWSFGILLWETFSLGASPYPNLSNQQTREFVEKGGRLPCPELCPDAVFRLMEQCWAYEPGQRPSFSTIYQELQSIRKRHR

Compound | remaining binding at 1 µM (panel of 468 kinases [1]) [%] | remaining binding at 1 µM (panel of 468 kinases [2]; ABL1(H396P)-nonphosphorylated) [%] | remaining binding at 1 µM (panel of 468 kinases [2]; ABL1(H396P)-phosphorylated) [%] | remaining binding at 1 µM (panel of 468 kinases [3]) [%] | remaining binding at 1 µM (panel of 468 kinases [4]) [%] | remaining binding at 1 µM (panel of 468 kinases [5]) [%] | remaining binding at 1 µM (panel of 468 kinases [6]) [%] | remaining binding at 1 µM (panel of 468 kinases [7]) [%] | remaining binding at 1 µM (panel of 468 kinases [8]) [%] | remaining binding at 1 µM (panel of 468 kinases [9]) [%]
CNc1nc(Nc2ccc(S(=O)(=O)N3CCC(N4CCOCC4)CC3)cc2OC)nc2[nH]cc(Cl)c12 [Compound 12, 5-chloro-N2-(2-methoxy-4-((4-morpholinopiperidin-1-yl)sulfonyl)phenyl)-N4-methyl-7H-pyrrolo[2,3-d]pyrimidine-2,4-diamine] | 100 | 100 | 73 | 100 | 78 | 97 | 100 | 99 | 100 | 100
CNc1nc(Nc2ccc(C(=O)N3CCC(N4CCOCC4)CC3)c3c2OCO3)nc2[nH]cc(Cl)c12 [Compound 75, (7-((5-chloro-4-(methylamino)-7H-pyrrolo[2,3-d]pyrimidin-2-yl)amino)benzo[d][1,3]dioxol-4-yl)(4-morpholinopiperidin-1-yl)methanone] | 71 | 99 | 82 | 81 | 95 | 93 | 87 | 98 | 100 | 56
CNc1nc(Nc2ccc(P3(=O)CCN(C4CCOCC4)CC3)cc2OC)nc2[nH]cc(Cl)c12 [Compound 77, 4-(4-((5-chloro-4-(methylamino)-7H-pyrrolo[2,3-d]pyrimidin-2-yl)amino)-3-methoxyphenyl)-1-(tetrahydro-2H-pyran-4-yl)-1,4-azaphosphinane 4-oxide] | 93 | 100 | 75 | 80 | 93 | 100 | 98 | 96 | 100 | 100
